From patent US4663332A, “5-substituted N-alkylated tetrazoles” (Hoffman-La Roche Inc., priority 1985, dated 1987)

Columns and labels:
[1] = target: T1, PAF binding to dog platelets (Canis lupus familiaris, UniProt A0A8I3NSH0); experiment: PAF Radioreceptor Binding Assay (PAF Binding); details: inhibition of 3H-PAF binding to dog platelets, 10 min, room temperature
T1 construct: from tissue; host or cells: washed platelets from citrate-treated dog blood
T1 sequence (A0A8I3NSH0 1-343): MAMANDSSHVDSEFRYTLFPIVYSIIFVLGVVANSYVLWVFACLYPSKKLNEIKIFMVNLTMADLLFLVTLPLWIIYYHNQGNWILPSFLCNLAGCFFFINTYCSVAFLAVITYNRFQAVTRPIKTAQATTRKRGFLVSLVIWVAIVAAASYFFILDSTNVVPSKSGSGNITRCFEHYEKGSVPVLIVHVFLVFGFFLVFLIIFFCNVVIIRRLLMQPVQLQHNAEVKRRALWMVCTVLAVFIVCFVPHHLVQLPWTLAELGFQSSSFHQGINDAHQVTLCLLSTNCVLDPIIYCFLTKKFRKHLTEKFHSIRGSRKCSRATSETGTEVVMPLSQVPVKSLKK
Method: (1) PAF Radioreceptor Binding Assay (PAF Binding)
Platelet rich plasma is prepared by centrifugation of citrate-treated dog blood. Acidification to pH 6.5 with 0.15M citric acid and centrifugation for 10 minutes at 1000×g yields a platelet pellet which is then washed by resuspension in EDTA-Phosphate Buffered Saline (PBS) and recentrifuged. The washed platelet preparation is adjusted to 2×10^7 platelets/50 μl in 0.1% bovine serum albumin-PBS.
To a 400 μl microfuge tube containing 50 μl silicone oil (specific gravity 1.023) is added buffer, PAF standard or analog, or an extract to bring the aqueous volume to 150 μl. 50 μl of ^3 H-PAF (10,000 cpm, 45 Ci/mM) is added followed by 2×10^7 dog platelets. After mixing, incubating for 10 minutes at room temperature, and centrifuging for 1 minute in a Beckman Microfuge B (8000×g), the pellet is removed by clipping off the tip of the tube, the platelets are solubilized with 200 μl of 50% methanol and counted in 10 ml of Aquasol. […] Results obtained with representative copounds of the present invention in this assay are summarized hereinafter in Tables I and II. IC50 is drug concentration (μMolar) which inhibits PAF binding to dog platelets by 50%.

TXA2 synthase = target: T2, TXA2 synthase (Homo sapiens, UniProt P24557); experiment: Thromboxane Synthase Inhibition, In Vitro (TXA2 Synth. Inhib.); assay type: biochemical; details: human platelet microsomes, 10 μM 14C-PGH2, 22° C., 2 min
T2 construct: using microsomal fractions from human platelets as enzyme source; from tissue; host or cells: microsomal fractions from human platelets
T2 sequence (P24557 1-533): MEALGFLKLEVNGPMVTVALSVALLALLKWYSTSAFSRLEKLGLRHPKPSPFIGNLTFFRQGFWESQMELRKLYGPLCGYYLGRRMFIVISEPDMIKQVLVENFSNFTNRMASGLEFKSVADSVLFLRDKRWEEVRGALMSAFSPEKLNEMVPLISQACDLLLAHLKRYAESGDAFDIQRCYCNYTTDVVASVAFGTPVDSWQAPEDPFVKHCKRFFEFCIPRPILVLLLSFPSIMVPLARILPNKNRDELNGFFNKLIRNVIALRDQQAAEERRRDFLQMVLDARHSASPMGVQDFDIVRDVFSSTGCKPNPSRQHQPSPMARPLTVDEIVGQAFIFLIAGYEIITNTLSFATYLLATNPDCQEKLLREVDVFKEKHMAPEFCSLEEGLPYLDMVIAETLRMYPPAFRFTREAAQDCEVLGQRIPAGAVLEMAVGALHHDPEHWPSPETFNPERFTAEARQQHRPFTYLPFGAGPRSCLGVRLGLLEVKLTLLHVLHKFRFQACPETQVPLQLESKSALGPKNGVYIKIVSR
Method: (2) Thromboxane Synthase Inhibition, In Vitro (TXA2 Synth. Inhib.)
TXA2 synthase activity is measured by following the conversion of ^14 C-prostaglandin endoperoxide (PGH2) to ^14 C-thromboxane A2 (TXA2) using microsomal fractions from human platelets as enzyme source. In the aqueous incubation medium, the TXA2 decomposes rapidly into TXB2. The amount of TXA2 synthase is adjusted so that under the conditions of the assay approximately 80-90% of the substrate, PGH2, is converted to product in control tubes. To prepare ^14 C-PGH2, ^14 C-AA (50-60 mCi/mmole; Rose Chem.) is incubated with sheep seminal vesicular gland microsomes for 1.5 minutes at 37° C. and then the ^14 C-PGH2 is extracted with diethylether, purified on columns oof Sephadex LH-20 or silicic acid, and stored in acetone at -70° C. Incubations are done as follows. Sufficient ^14 C-PGH2 to yield a final substrate concentration of 10 μM (30,000 cpm) is added to the incubation tubes and then the acetone is removed under nitrogen. The tubes are placed in an ice bath and then 215 μl of ice cold phosphate buffered saline, 10 μl of ethanol (control) or of test drug in ethanol, and 25 μl of the microsomal suspension are added with mixing in that order as rapidly as possible. The tubes are incubated at 22° C. for 2 minutes, the reaction is stopped and then the radioactive products and the unconverted PGH2 are extracted and analyzed by thin layer chromatography. […] The amount of ^14 C-PGH2 converted to products was used as a measure of TXA2 synthase activity. Inhibitors were tested initially at a final concentration 100 μM. Results obtained with representative compounds of the present invention in this assay are summarized hereafter in Tables I and II. IC50 is the drug concentration (μMolar) which inhibits TXA2 activity by 50%.

PAF [2] = experiment: Inhibition of PAF Induced Guinea Pig Bronchoconstriction Test (Inhib. of PAF Broncho.); assay type: in vivo, guinea pig (Hartley strain); details: Cavia porcellus, iv; 1 mg/kg i.v. (1 min. pretreat)
Method: (3) Inhibition of PAF Induced Guinea Pig Bronchoconstriction Test (Inhib. of PAF Broncho.)
Male guinea pigs (Hartley strain) weighing 300 to 500 g are anesthetized with urethane (2 g/kg) intraperitoneally and a polyethylene cannula is inserted into the jugular vein for drug administration. Tracheal pressure is recorded from a cannula inserted in the trachea and connected to a Statham pressure transducer. Propranolol (0.1 mg/kg) is administered intravenously five minutes before challenge with synthetic PAF, the animal's skeletal muscles are then paralyzed with succinylcholine (1.2 mg/kg i.v.), and the animal is respirated using a Harvard small animal respirator operating at 40 breaths/min and 2.5 cc stroke volume. Under these conditions PAF induces a dose-dependent increase in ventilatory pressure over a dose range of 0.5 to 5 μg/kg i.v. For screening purposes animals are challenged with a single dose of PAF (10 μg/kg i.v.).
The peak increase in ventilatory pressure (cm H2 O) is recorded for three control animals and five drug-treated animals and the percent inhibition determined from the following formula [formula] Results obtained with representative compounds of the invention in this test are summarized hereinafter in Tables I and II.

PAF [3] = experiment: Inhibition of PAF-Induced Platelet Aggregation (Inhib. of PAF Platelet Reduction); assay type: in vivo, guinea pig; details: Cavia porcellus, iv, 3 mg/kg i.v.
Method: (5) Inhibition of PAF-Induced Platelet Aggregation (Inhib. of PAF Platelet Reduction)
Guinea pigs (anesthetized) are set up to withdraw blood for platelet counting. The animal is allowed to stabilize after completion of surgical procedures. The carotid catheter is allowed to bleed back blood and then is filled, prior to each sample withdrawal with sodium citrate 3.8% (0.15 ml). Blood (0.25 ml) is withdrawn 30 seconds prior to the PAF challenge and at 15, 30 and 60 seconds after the PAF challenge. This first PAF challenge is used as the control, assuming sufficient decreases in platelet count are observed. The amount of PAF used will be approximately 50 ng/kg, however, this can be increased to achieve the desired decreases in platelet count. Fifteen minutes after the control PAF challenge, intravenous drug dosing begins, with animals being dosed at 30 minute intervals; PAF challenge follows 15 minutes after each intravenous dose. Three intravenous drug doses are used in each experiment. Initial drug doses are 1, 3 and 10 mg/kg i.v. Inhibition of PAF platelet reduction at 3 mg/kg i.v. for representative compounds of the invention are summarized hereinafter in Tables I and II. Percent inhibition is [formula]

CCCc1c(OCCCCCc2nnnn2CCCc2cccnc2)ccc(C(C)=O)c1O [H H 5 3 3-pyridyl, 1-[2-hydroxy-3-propyl-4-[5-[1-[3-(3-pyridinyl)propyl]-1H-tetrazol-5-yl]pentyloxy]phenyl]ethanone]
IC50 [1]: 150 nM | IC50 (TXA2 synthase): 100 to 1000 nM | inhibition in vivo at 1 mg/kg (PAF [2]): 96 ± 1% | inhibition in vivo at 3 mg/kg (PAF [3]): 12%

CCCc1c(OCc2cccc(-c3nnnn3CCCc3cccnc3)c2)ccc(C(C)=O)c1O [1-[2-hydroxy-3-propyl-4-[[3-[1-[3-(3-pyridinyl)propyl]-1H-tetrazol-5-yl]phenyl]methoxy]phenyl]ethanone]
IC50 [1]: 200 nM | IC50 (TXA2 synthase): 1000 nM

CCCc1c(OCCCCc2nnn(CCc3cccnc3)n2)ccc(C(C)=O)c1O [4 2 3-pyridyl, 1-[2-Hydroxy-3-propyl-4-[4-[2-[2-(3-pyridinyl)ethyl]-2H-tetrazol-5-yl]butoxy]phenyl]ethanone]
IC50 [1]: > 1000 nM

CCCc1c(OCCCCCc2nnn(CCCCc3cccnc3)n2)ccc(C(C)=O)c1O [5 4 3-pyridyl, 1-[2-Hydroxy-3-propyl-4-[5-[2-[4-(3-pyridinyl)butyl]-2H-tetrazol-5-yl]pentyloxy]phenyl]ethanone]
IC50 [1]: 480 nM | IC50 (TXA2 synthase): 100 to 1000 nM | inhibition in vivo at 1 mg/kg (PAF [2]): 94 ± 6%

CCCc1c(OCCCCc2nnn(CCCn3ccnc3)n2)ccc(C(C)=O)c1O [4 3 1-imidazolyl, 1-[2-Hydroxy-3-propyl-4-[4-[2-[3-(1H-imidazol-1-yl)propyl]-2H-tetrazol-5-yl]butoxy]phenyl]-ethanone]
IC50 [1]: > 1000 nM | inhibition in vivo at 1 mg/kg (PAF [2]): 30 ± 15%

CCCc1c(OCCCCCc2nnn(Cc3cccnc3)n2)ccc(C(C)=O)c1O [5 1 3-pyridyl]
IC50 [1]: > 1000 nM

CCCc1c(OCCCCCc2nnnn2Cc2cccnc2)ccc(C(C)=O)c1O [H H 5 1 3-pyridyl, 1-[2-Hydroxy-3-propyl-4-[5-[1-(3-pyridinyl)methyl-1H-tetrazol-5-yl]-pentyloxy]phenyl]ethanone]
IC50 [1]: 800 nM

CCCc1c(O)c(C(C)=O)cc(Cl)c1OCCCCCc1nnnn1CCCCc1cccnc1 [Cl H 5 4 3-pyridyl, 1-[5-chloro-2-hydroxy-3-propyl-4-[5-[1-[4-(3-pyridinyl)butyl]-1H-tetrazol-5-yl]pentyloxy]phenyl]ethanone]
IC50 [1]: 140 nM | IC50 (TXA2 synthase): 1000 nM | inhibition in vivo at 3 mg/kg (PAF [3]): 7%

CCCc1c(OCCCc2nnn(CCCc3cccnc3)n2)ccc(C(C)=O)c1O [3 3 3-pyridyl, 1-[2-hydroxy-3-propyl-4-[3-[2-[3-(3-pyridinyl)propyl]-2H-tetrazol-5-yl]propoxy]phenyl]ethanone]
IC50 [1]: > 1000 nM | inhibition in vivo at 1 mg/kg (PAF [2]): 13 ± 7%

CCCc1c(OCCCc2nnn(CCCCc3cccnc3)n2)ccc(C(C)=O)c1O [3 4 3-pyridyl, 1-[2-Hydroxy-3-propyl-4-[3-[2-[4-(3-pyridinyl)butyl]-2H-tetrazol-5-yl]propoxy]phenyl]ethanone]
IC50 [1]: 1000 nM | inhibition in vivo at 1 mg/kg (PAF [2]): 38 ± 14%

CCCc1c(O)c(C(C)=O)cc(Cl)c1OCc1cccc(-c2nnnn2CCCc2cccnc2)c1 [1-[5-chloro-2-hydroxy-3-propyl-4-[[3-[1-[3-(3-pyridinyl)propyl]-1H-tetrazol-5-yl]phenyl]methoxy]phenyl]ethanone]
IC50 [1]: 25 nM | inhibition in vivo at 1 mg/kg (PAF [2]): 43 ± 21% | inhibition in vivo at 3 mg/kg (PAF [3]): 25%

CCCc1c(OCCCCc2nnnn2CCc2cccnc2)ccc(C(C)=O)c1O [H H 4 2 3-pyridyl, 1-[2-Hydroxy-3-propyl-4-[4-[1-[2-(3-pyridinyl)ethyl]-1H-tetrazol-5-yl]butoxy]phenyl]ethanone]
IC50 [1]: 1000 nM | inhibition in vivo at 1 mg/kg (PAF [2]): -15 ± 6% | inhibition in vivo at 3 mg/kg (PAF [3]): 48%

CCCc1c(OCCCCc2nnn(CCCc3cccnc3)n2)ccc(C(C)=O)c1O [4 3 3-pyridyl, 1-[2-Hydroxy-3-propyl-4-[4-[2-[3-(3-pyridinyl)propyl]-2H-tetrazol-5-yl]butoxy]phenyl]ethanone]
IC50 [1]: > 1000 nM | inhibition in vivo at 1 mg/kg (PAF [2]): 55 ± 9%

CCCc1c(OCCCc2nnnn2CCCc2cccnc2)ccc(C(C)=O)c1O [H H 3 3 3-pyridyl, 1-[2-Hydroxy-3-propyl-4-[3-[1-[3-(3-pyridinyl)propyl]-1H-tetrazol-5-yl]propoxy]phenyl]ethanone]
IC50 [1]: 250 nM | IC50 (TXA2 synthase): 10 to 100 nM | inhibition in vivo at 1 mg/kg (PAF [2]): 53 ± 17%

CCCc1c(OCCCCCc2nnn(CCCc3cccnc3)n2)ccc(C(C)=O)c1O [5 3 3-pyridyl, 1-[2-Hydroxy-3-propyl-4-[5-[2-[3-(3-pyridinyl)propyl]-2H-tetrazol-5-yl]pentyloxy]phenyl]ethanone]
IC50 [1]: > 1000 nM | IC50 (TXA2 synthase): 100 to 1000 nM | inhibition in vivo at 1 mg/kg (PAF [2]): 38 ± 11%
